Structures can show the parent of a compound that is named as a salt.
What was measured:
[1] = molecular target: human ACC1 (Homo sapiens, UniProt Q13085); test: Acetyl CoA carboxylase (ACC) activity inhibition test, human ACC1; format: biochemical; details: 1 μmol/liter test compound; read-out: Inhibition (%) by 1 μmol/liter Chemical, human ACC1
Method: (§1) A. Pharmacological Test Example (Acetyl CoA Carboxylase (ACC) Activity Inhibition Test)
(§2) A test compound is dissolved in dimethyl sulfoxide (DMSO) to a concentration of 10 mM and then diluted with DMSO to give a 100-fold concentrated solution of the compound compared with target assay concentration. The ACC enzyme activity inhibition test is carried out according to a modification of Thampy & Wakil's method (J. Biol. Chem., Vol. 260, pp. 6318-6323 (1985)). Concretely, 0.8 μl of the diluted test compound is added to each well of 96-well assay plate (Perkin Elmer Opti Plate), then 40 μl of a substrate solution (50 mM Hepes sodium (pH 7.5), 2 mM DTT, 10 mM ATP, 500 μM acetyl CoA, 0.17 mM NaH[^14C]O3 (58 mCi/mmol, by Amersham), 8 mM NaHCO3) is added to each well, and 40 μL of an enzyme solution (1 to 2 nM human ACC1 or human ACC2, 50 mM Hepes sodium (pH 7.5), 2 mM DTT, 40 mM MgCl2, 40 mM tripotassium citrate 1 mg/ml fetal bovine serum albumin) is added thereto. Then, the upper side of the plate is sealed up, and the plate is incubated with gently stirring at 37° C. for 40 minutes. Next, 20 μl of 1 N HCl is added to each well to stop the enzyme reaction, and the assay plate is stirred overnight to remove the unreacted NaH[^14C]O3. Next, 100 μl of a scintillator (Perkin Elmer's Microscinti 40) is added to each well and the plate is stirred, then the radioactivity of the fixed [^14C] is counted using a microplate scintillation counter (Perkin Elmer's Topcount), the radioactivity of which represents the enzyme activity in each well. The human ACC1 and human ACC2 enzyme-inhibition activities of the test compounds are calculated, based on the radioactivity of the well added by DMSO without test compound as a control.

[2] = molecular target: human ACC2 (Homo sapiens, UniProt O00763); test: Acetyl CoA carboxylase (ACC) activity inhibition test, human ACC2; format: biochemical; details: 1 μmol/liter test compound; read-out: Inhibition (%) by 1 μmol/liter Chemical, human ACC2
Method: as §1, §2

human ACC2, sequence (O00763 whole entry): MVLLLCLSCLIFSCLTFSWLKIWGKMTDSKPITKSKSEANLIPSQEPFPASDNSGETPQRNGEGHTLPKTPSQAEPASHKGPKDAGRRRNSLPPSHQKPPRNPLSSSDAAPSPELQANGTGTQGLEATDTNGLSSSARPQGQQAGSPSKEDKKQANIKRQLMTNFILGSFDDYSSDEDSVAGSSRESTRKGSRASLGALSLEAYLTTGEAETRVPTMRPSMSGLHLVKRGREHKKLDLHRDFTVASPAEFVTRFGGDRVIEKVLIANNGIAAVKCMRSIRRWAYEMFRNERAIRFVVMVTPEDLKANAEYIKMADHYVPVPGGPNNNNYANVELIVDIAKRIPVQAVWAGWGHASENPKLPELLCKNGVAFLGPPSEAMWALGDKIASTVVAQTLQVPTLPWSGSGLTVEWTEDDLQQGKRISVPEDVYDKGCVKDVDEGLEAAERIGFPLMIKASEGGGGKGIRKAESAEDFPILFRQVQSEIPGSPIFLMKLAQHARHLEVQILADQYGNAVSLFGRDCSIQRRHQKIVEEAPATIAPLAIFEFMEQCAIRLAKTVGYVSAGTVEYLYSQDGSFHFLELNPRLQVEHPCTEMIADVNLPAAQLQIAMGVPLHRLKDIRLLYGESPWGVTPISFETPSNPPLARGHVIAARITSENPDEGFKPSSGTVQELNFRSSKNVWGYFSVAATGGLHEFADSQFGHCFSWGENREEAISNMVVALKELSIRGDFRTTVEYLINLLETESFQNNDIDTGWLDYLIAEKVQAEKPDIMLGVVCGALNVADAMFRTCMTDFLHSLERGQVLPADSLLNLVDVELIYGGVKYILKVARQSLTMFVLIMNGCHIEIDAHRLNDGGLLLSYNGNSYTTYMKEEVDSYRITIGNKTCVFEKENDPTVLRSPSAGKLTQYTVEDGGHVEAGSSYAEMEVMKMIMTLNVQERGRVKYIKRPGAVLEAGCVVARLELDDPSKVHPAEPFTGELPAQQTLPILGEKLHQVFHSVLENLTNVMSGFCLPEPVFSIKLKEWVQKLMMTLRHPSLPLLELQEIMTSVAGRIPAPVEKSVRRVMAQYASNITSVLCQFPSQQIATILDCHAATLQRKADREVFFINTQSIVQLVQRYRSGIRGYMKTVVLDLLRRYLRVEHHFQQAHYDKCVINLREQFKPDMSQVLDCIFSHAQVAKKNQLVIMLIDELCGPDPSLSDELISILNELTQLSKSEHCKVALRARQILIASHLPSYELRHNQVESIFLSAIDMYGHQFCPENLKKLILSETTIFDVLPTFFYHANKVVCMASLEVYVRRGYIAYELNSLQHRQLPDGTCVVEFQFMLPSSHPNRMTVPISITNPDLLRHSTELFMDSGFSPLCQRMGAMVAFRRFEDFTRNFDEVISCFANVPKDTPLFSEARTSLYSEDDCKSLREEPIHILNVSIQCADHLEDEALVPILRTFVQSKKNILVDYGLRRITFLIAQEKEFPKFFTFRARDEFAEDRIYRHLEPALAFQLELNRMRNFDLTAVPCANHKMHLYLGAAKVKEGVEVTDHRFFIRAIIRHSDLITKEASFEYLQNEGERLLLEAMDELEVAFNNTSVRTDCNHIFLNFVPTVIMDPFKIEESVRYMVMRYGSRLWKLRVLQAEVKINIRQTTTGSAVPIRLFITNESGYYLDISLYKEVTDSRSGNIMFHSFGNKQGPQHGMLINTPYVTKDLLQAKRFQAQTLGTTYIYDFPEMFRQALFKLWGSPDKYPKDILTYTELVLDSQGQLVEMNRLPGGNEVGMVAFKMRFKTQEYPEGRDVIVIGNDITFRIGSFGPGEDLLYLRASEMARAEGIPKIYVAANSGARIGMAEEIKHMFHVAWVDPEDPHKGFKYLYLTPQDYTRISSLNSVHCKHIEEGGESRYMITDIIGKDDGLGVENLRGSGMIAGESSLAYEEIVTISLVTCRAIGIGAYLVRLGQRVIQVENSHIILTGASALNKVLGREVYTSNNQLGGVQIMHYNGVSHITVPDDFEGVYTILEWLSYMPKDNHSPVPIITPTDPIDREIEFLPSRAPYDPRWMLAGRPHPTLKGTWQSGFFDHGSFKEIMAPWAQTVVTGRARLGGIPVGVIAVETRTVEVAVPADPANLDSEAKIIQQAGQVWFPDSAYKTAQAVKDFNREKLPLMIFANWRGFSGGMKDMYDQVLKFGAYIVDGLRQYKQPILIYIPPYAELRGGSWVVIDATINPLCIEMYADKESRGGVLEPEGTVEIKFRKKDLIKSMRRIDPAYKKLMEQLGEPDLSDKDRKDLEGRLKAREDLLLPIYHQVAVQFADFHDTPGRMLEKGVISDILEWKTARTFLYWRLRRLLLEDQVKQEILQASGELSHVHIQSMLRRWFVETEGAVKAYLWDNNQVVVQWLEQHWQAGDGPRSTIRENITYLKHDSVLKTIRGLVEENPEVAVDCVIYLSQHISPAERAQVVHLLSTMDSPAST

Row | SMILES | inhibition at 1 µM [1] [%] | inhibition at 1 µM [2] [%]
1 | CCOc1cc(C(=O)N2CCC3(CC2)CC(=O)c2cc(-c4nnn[nH]4)ccc2O3)cc2c(C3CC3)noc12 [Example 31, 1′-[(3-cyclopropyl-7-ethoxy-1,2-benzisoxazol-5-yl)carbonyl]-6-(1H-tetrazol-5-yl)spiro[chroman-2,4′-piperidin]-4-one] | 97 | 98
2 | CCOc1cc(C(=O)N2CCC3(CC2)CC(=O)c2cc(-c4nnn[nH]4)ccc2O3)cc2c1c(C)cn2C1CC1 [Example 17, 1′-[(1-Cyclopropyl-4-ethoxy-3-methyl-1H-indol-6-yl)carbonyl]-6-(1H-tetrazol-5-yl)spiro[chroman-2,4′-piperidin]-4-one] | 98 | 99
3 | COc1cc(C(=O)N2CCC3(CC2)CC(=O)c2cc(-c4nnn[nH]4)ccc2O3)cc2c1ccn2OC [Example 8, 1′-{[1,4-Dimethoxy-1H-indol-6-yl]carbonyl}-6-(1H-tetrazol-5-yl)spiro[chroman-2,4′-piperidin]-4-one] | 99 | 99
4 | CCOc1cc(C(=O)N2CCC3(CC2)CC(=O)c2cc(-c4nnn[nH]4)ccc2O3)cc2c1ccn2C1CC1 [Example 13, 1′-[(1-Cyclopropyl-4-ethoxy-1H-indol-6-yl)carbonyl]-6-(1H-tetrazol-5-yl)spiro[chroman-2,4′-piperidin]-4-one] | 100 | 99
5 | O=C1CC2(CCN(C(=O)c3cc(OCCO)c4ccn(C5CC5)c4c3)CC2)Oc2ccc(-c3nnn[nH]3)cc21 [Example 36] | 99 | 99
6 | COc1cc(C(=O)N2CCC3(CC2)CC(=O)c2cc(-c4cncc(C(=O)O)c4)ccc2O3)cc2c1c(C)cn2C1CC1 [Example 23, 5-{1′-[(1-Cyclopropyl-4-methoxy-3-methyl-1H-indol-6-yl)carbonyl]-4-oxo-spiro[chroman-2,4′-piperidin]-6-yl}nicotinic acid sodium salt] | 99 | 98
7 | CCOc1cc(C(=O)N2CCC3(CC2)CC(=O)c2cc(-c4cncc(C(=O)O)c4)ccc2O3)cc2c1c(C)cn2C1CC1 [Example 45, 5-{1′-[(1-cyclopropyl-4-ethoxy-3-methyl-1H-indol-6-yl)carbonyl]-4-oxospiro[chroman-2,4′-piperidin]-6-yl}nicotinic acid] | 100 | 100
8 | CCn1ccc2c(OCCO)cc(C(=O)N3CCC4(CC3)CC(=O)c3cc(-c5nnn[nH]5)ccc3O4)cc21 [Example 4, 1′-{[1-Ethyl-4-(2-hydroxyethoxy)-1H-indol-6-yl]carbonyl}-6-(1H-tetrazol-5-yl)spiro[chroman-2,4′-piperidin]-4-one] | 96 | 97
9 | COc1cc(C(=O)N2CCC3(CC2)CC(=O)c2cc(-c4cncc(C(=O)O)c4)ccc2O3)cc2c1c(Cl)cn2C1CC1 [Example 24, 5-{1′-[(3-Chloro-1-cyclopropyl-4-methoxy-1H-indol-6-yl)carbonyl]-4-oxo-spiro[chroman-2,4′-piperidin]-6-yl}nicotinic acid sodium salt] | 99 | 100
10 | COc1cc(C(=O)N2CCC3(CC2)CC(=O)c2cc(-c4nnn[nH]4)ccc2O3)cn2c(C3CC3)cnc12 [Example 2, 1′-[(3-Cyclopropyl-8-methoxyimidazo[1,2-a]pyridin-6-yl)carbonyl]-6-(1H-tetrazol-5-yl)spiro[chroman-2,4′-piperidin]-4-one] | 93 | 93
11 | COc1cc(C(=O)N2CCC3(CC2)CC(=O)c2cc(-c4nnc(C(N)=O)[nH]4)ccc2O3)cc2c1ccn2C1CC1 [Example 57, 5-{1′-[(1-cyclopropyl-4-methoxy-1H-indol-6-yl)carbonyl]-4-oxo-spiro[chroman-2,4′-piperidin]-6-yl}-4H-1,2,4-triazole-3-carboxamide] | 99 | 99
12 | CCn1ccc2c(OC)cc(C(=O)N3CCC4(CC3)CC(=O)c3cc(-c5nnn[nH]5)ccc3O4)cc21 [Example 56, 1′-[(1-ethyl-4-methoxy-1H-indol-6-yl)carbonyl]-6-(1H-tetrazol-5-yl)spiro[chroman-2,4′-piperidin]-4-one] | 99 | 99
13 | CCn1cnc2c(OC)cc(C(=O)N3CCC4(CC3)CC(=O)c3cc(-c5nnn[nH]5)ccc3O4)cc21 [Example 1, 1-[(1-Ethyl-4-methoxy-1H-benzimidazol-6-yl)carbonyl]-6-(1H-tetrazol-5-yl)spiro[chroman-2,4′-piperidine]-4-one] | 91 | 89
14 | COc1cc(C(=O)N2CCC3(CC2)CC(=O)c2cc(-c4noc(=O)[nH]4)ccc2O3)cc2c1ccn2C1CC1 [Example 3, 1′-[(1-Cyclopropyl-4-methoxy-1H-indol-6-yl)carbonyl]-6-(5-oxo-4,5-dihydro-1,2,4-oxadiazol-3-yl)spiro[chroman-2,4′-piperidin]-4-one] | 100 | 97
15 | CCn1ncc2c(OC)cc(C(=O)N3CCC4(CC3)CC(=O)c3cc(-c5nnn[nH]5)ccc3O4)cc21 [Example 10, 1′-[(1-Ethyl-4-methoxy-1H-indazol-6-yl)carbonyl]-6-(1H-tetrazol-5-yl)spiro[chroman-2,4′-piperidin]-4-one] | 93 | 96
16 | COc1cc(C(=O)N2CCC3(CC2)CC(=O)c2cc(-c4cncc(C(=O)O)c4)ccc2O3)cc2c1ccn2C1CC1 [Example 7, 5-{1′-[(1-Cyclopropyl-4-methoxy-1H-indol-6-yl)carbonyl]-4-oxospiro[chroman-2,4′-piperidin]-6-yl}nicotinic acid sodium salt] | 100 | 99
17 | COc1cc(C(=O)N2CCC3(CC2)CC(=O)c2cc(-c4nnn[nH]4)ccc2O3)cc2c1ccn2C1CC1 [Example 11, 1′-[(1-Cyclopropyl-4-methoxy-1H-indol-6-yl)carbonyl]-6-(1H-tetrazol-5-yl)spiro[chroman-2,4′-piperidin]-4-one] | 99 | 98
18 | COc1cc(C(=O)N2CCC3(CC2)CC(=O)c2cc(-c4cccc(C(=O)O)c4)ccc2O3)cc2c1ccn2C1CC1 [Example 5, Sodium 3-{1′-[(1-cyclopropyl-4-methoxy-1H-indol-6-yl)carbonyl]-4-oxospiro[chroman-2,4′-piperidin]-6-yl}benzoate] | 99 | 99

Reference: patent US8093389B2, “Substituted spirochromanone derivatives” (Merck Sharp & Dohme Corp., priority 2007, dated 2012)
